Experimental data as given in patent US20090105301A1, “9A-SUBSTITUTED AZALIDES FOR THE TREATMENT OF MALARIA” (priority 2006, published 2009).
≈ marks a conversion by molar mass, not a printed value. Where a name gives a salt, the structure may show the parent alone.

Columns and labels:
Format in all cases: cell-based, Plasmodium falciparum
[1] = tested on: P. falciparum D6 (CDC/Sierra Leone I, D-6); assay: In vitro screening protocol I, [3H]-hypoxanthine incorporation, D6; settings: In vitro screening protocol I, P. falciparum D6; for IC50: Plasmodium falciparum, read-out: IC50 D6
Description: (§1) Agents Chemother. 27 (4) (1985) 525-530). The system was limited to the assessment of the intrinsic activity against the erythrocytic asexual life cycle (blood schizontocides). Two Plasmodium falciparum clones from CDC/Indochina III (W-2) and CDC/Sierra Leone I (D-6) (Oduola A M, Weatherly N F, Bowdre J H, Desjardins R E. Plasmodium falciparum: cloning by single-erythrocyte micromanipulation and heterogeneity in vitro. Exp Parasitol. 66 (1) (1988) 86-95) were used for all assays. TM91C235, a multiple drug resistant isolate from Thailand (Antimicrob. Agents Chemother. 46 (8) (2002) 2627 and Antimicrob. Agents Chemother. 43 (3) (1999) 598-602), was used for the prescreening assay. W-2 is resistant to chloroquine, quinine, and pyrimethamine and susceptible to mefloquine. D-6 tends to be more resistant to mefloquine and susceptible to chloroquine, quinine, and pyrimethamine. All documents cited in this paragraph are incorporated by reference in their entirety.
(§2) All parasites were maintained in continuous long term cultures in RPMI-1640 medium supplemented with 6% washed human A positive (A+)(erythrocytes, 25 mM Hepes, […], and 10% heat inactivated A+ human plasma or ALBUMAX® (lipid-rich bovine serum albumin; Invitrogen, Carlsbad, Calif.). All cultures and assays were conducted at 37° C. under an atmosphere of 5% CO2 and 5% O2, with a balance of N2.
(§3) The prescreening assay uses TM91C235 diluted at a 0.4% parasitemia in a 1% hematocrit in folic acid free and p-aminobenzoic acid free media RPMI-1640 and ALBUMAX®. […] The compound is further diluted in folate free (FF) culture medium with ALBUMAX® for the first initial starting concentration. The rest of the stock drug solution was kept at −70° C. The isolate was preexposed, in duplicate, at three concentrations (25,000 ng/ml, 2,500 ng/ml, and […]) of the test compound for 48 hr in a 96-well microtiter plate (MTP) using the BIOMEK® 2000 automated laboratory workstation. Each MTP contains chloroquine as control to assess the relative activity of the compound and to monitor the response of TM91C235.
(§4) After the preincubation, [^3H]-hypoxanthine was added to each well of the MTP. (The assay relies on the incorporation of radiolabeled hypoxanthine by the parasites, which indicates reproduction, and inhibition of isotope incorporation was attributed to activity of known or candidate antimalarial drugs). After 72 hours of total incubation time, the MTP were frozen to lyse the erythrocytes and parasites. The parasite DNA was recovered by harvesting the lysate onto glass-fiber filter plates using a Packard FilterMate™ Cell Harvester. The radioactivity was counted on a Packard TopCount™ microplate scintillation counter.
(§5) The serial dilution assay was conducted using the same assay conditions and stock solution of the compound used for the preliminary screen, described above. Both the D-6 and the W-2 clones were used. The compounds were diluted two-fold over 11 different concentration ranges with a starting concentration that was based on the preliminary screen. For each drug, the concentration response profile was determined and 50% inhibitory concentrations (IC50) were determined by using a non-linear, logistic dose response analysis program. […] For each assay, the IC50 for each clone was determined against the known antimalarials chloroquine and mefloquine. These control values established the compound's relative parasite susceptibility profile compared to known antimalarials. […]

[2] = tested on: P. falciparum TM91C235; assay: In vitro screening protocol I, [3H]-hypoxanthine incorporation, TM91C235; settings: In vitro screening protocol I, P. falciparum TM91C235; for IC50: Plasmodium falciparum, read-out: IC50 TM91C235
Description: as §1, §2, §3, §4, §5

[3] = tested on: P. falciparum W2 (CDC/Indochina III, W-2); assay: In vitro screening protocol I, [3H]-hypoxanthine incorporation, W2; settings: In vitro screening protocol I, P. falciparum W2; for IC50: Plasmodium falciparum, read-out: IC50 W2
Description: as §1, §2, §3, §4, §5

SMILES | IC50 [1] [µg/mL] | IC50 [2] [µg/mL] | IC50 [3] [µg/mL] | IC50 D6 [1] | IC50 TM91C235 [2] | IC50 W2 [3]
CC[C@H]1OC(=O)[C@H](C)[C@@H](O[C@H]2C[C@@](C)(OC)[C@@H](O)[C@H](C)O2)[C@H](C)[C@@H](O[C@@H]2O[C@H](C)C[C@H](N(C)C)[C@H]2O)[C@](C)(O)C[C@@H](C)CN(CCC(=O)NCCCCc2ccccc2)[C@H](C)[C@@H](O)[C@]1(C)O [Example 41] | 0.1 to 0.2 (≈ 0.107 to 0.213 µM) | < 0.1 | < 0.1 |  |  | 
CC[C@H]1OC(=O)[C@H](C)[C@@H](O)[C@H](C)[C@@H](O[C@@H]2O[C@H](C)C[C@H](N(C)C)[C@H]2O)[C@](C)(O)C[C@@H](C)CN(CCCNCc2ccncc2)[C@H](C)[C@@H](O)[C@]1(C)O [Example 11, 9a-{3-[(Pyridine-4-yl-methyl)amino]propyl}-3-O-decladinosyl-9-deoxo-9-dihydro-9a-aza-9a-homoerythromycin A] |  |  |  | G (3500 < X ≦ 5000) | F (2800 < X ≦ 3500) | C (200 < X ≦ 1000)
CC[C@H]1OC(=O)[C@H](C)[C@@H](O[C@H]2C[C@@](C)(OC)[C@@H](O)[C@H](C)O2)[C@H](C)[C@@H](O[C@@H]2O[C@H](C)C[C@H](N(C)C)[C@H]2O)[C@](C)(O)C[C@@H](C)CN(CCCNC(=O)[C@H](C)c2ccc3cc(OC)ccc3c2)[C@H](C)[C@@H](O)[C@]1(C)O [Example 32, 9a-[3-({(2S)-2-[6-(methyloxy)-naphthalen-2-yl]propanoyl}amino)propyl]-9a-aza-9-deoxo-9-dihydro-9a-homoerythromycin A Formiate Salt] | 0.2 to 1 | < 0.1 | 0.1 to 0.2 |  |  | 
CC[C@H]1OC(=O)[C@H](C)[C@@H](O)[C@H](C)[C@@H](O[C@@H]2O[C@H](C)C[C@H](N(C)C)[C@H]2O)[C@](C)(O)C[C@@H](C)CN(CCCNc2ccnc3cc(Cl)ccc23)[C@H](C)[C@@H](O)[C@]1(C)O [Example 23] | < 0.1 | < 0.1 | < 0.1 |  |  | 
CC[C@H]1OC(=O)[C@H](C)[C@@H](O)[C@H](C)[C@@H](O[C@@H]2O[C@H](C)C[C@H](N(C)C)[C@H]2O)[C@](C)(O)C[C@@H](C)CN(CCCNCc2cnc3ccccc3c2)[C@H](C)[C@@H](O)[C@]1(C)O [Example 5, 9a-{3-[(Quinolin-3-yl-methyl)amino]propyl}-3-O-decladinosyl-9-deoxo-9-dihydro-9a-aza-9a-homoerythromycin A] | 0.2 to 1 (≈ 0.258 to 1.29 µM) | 0.1 to 0.2 (≈ 0.129 to 0.258 µM) | 0.1 to 0.2 (≈ 0.129 to 0.258 µM) |  |  | 
CC[C@H]1OC(=O)[C@H](C)[C@@H](O)[C@H](C)[C@@H](O[C@@H]2O[C@H](C)C[C@H](N(C)C)[C@H]2O)[C@](C)(O)C[C@@H](C)CN(CCCNCc2cccc3ccccc23)[C@H](C)[C@@H](O)[C@]1(C)O [Example 9, 9a-{3-[(Naphtalen-1-yl-methyl)amino]propyl}-3-O-decladinosyl-9-deoxo-9-dihydro-9a-aza-9a-homoerythromycin A] |  |  |  | A (X ≦ 100) | A (X ≦ 100) | A (X ≦ 100)
CC[C@H]1OC(=O)[C@H](C)[C@@H](O[C@H]2C[C@@](C)(OC)[C@@H](O)[C@H](C)O2)[C@H](C)[C@@H](O[C@@H]2O[C@H](C)C[C@H](N(C)C)[C@H]2O)[C@](C)(O)C[C@@H](C)CN(CCCNC(=O)Cc2ccc3ccccc3c2)[C@H](C)[C@@H](O)[C@]1(C)O [Example 33, 9a-{3-[(Naphtalen-2-yl-acetyl)amino]propyl}-9a-aza-9-deoxo-9-dihydro-9a-homoerythromycin A Formiate Salt] | 0.1 to 0.2 | < 0.1 | 0.2 to 1 |  |  | 
CC[C@H]1OC(=O)[C@H](C)[C@@H](O)[C@H](C)[C@@H](O[C@@H]2O[C@H](C)C[C@H](N(C)C)[C@H]2O)[C@](C)(O)C[C@@H](C)CN(CCCNC(=O)Cc2cccc3ccccc23)[C@H](C)[C@@H](O)[C@]1(C)O [Example 36, 9a-{3-[(Naphtalen-1-yl-acetyl)amino]propyl}-3-O-decladinosyl-9a-aza-9-deoxo-9-dihydro-9a-homoerythromycin A Formiate Salt] | 1 to 2.5 | 1 to 2.5 | 1 to 2.5 |  |  | 
CC[C@H]1OC(=O)[C@H](C)[C@@H](O[C@H]2C[C@@](C)(OC)[C@@H](O)[C@H](C)O2)[C@H](C)[C@@H](O[C@@H]2O[C@H](C)C[C@H](N(C)C)[C@H]2O)[C@](C)(O)C[C@@H](C)CN(CCCNC(=O)Cc2cccc3ccccc23)[C@H](C)[C@@H](O)[C@]1(C)O [Example 29, 9a-{3-[(Naphtalen-1-yl-acetyl)amino]propyl}-9a-aza-9-deoxo-9-dihydro-9a-homoerythromycin A Formiate Salt] | 0.2 to 1 | < 0.1 | 0.2 to 1 |  |  | 
CCOc1ccc2ccccc2c1CNCCCN1C[C@H](C)C[C@@](C)(O)[C@H](O[C@@H]2O[C@H](C)C[C@H](N(C)C)[C@H]2O)[C@@H](C)[C@H](O[C@H]2C[C@@](C)(OC)[C@@H](O)[C@H](C)O2)[C@@H](C)C(=O)O[C@H](CC)[C@@](C)(O)[C@H](O)[C@H]1C [Example 7, 9a-[3-({[2-(Ethyloxy)-naphthalen-1-yl]methyl}amino)propyl]-9-deoxo-9-dihydro-9a-aza-9a-homoerythromycin A] | < 0.1 | < 0.1 | < 0.1 |  |  | 
CC[C@H]1OC(=O)[C@H](C)[C@@H](O[C@H]2C[C@@](C)(OC)[C@@H](O)[C@H](C)O2)[C@H](C)[C@@H](O[C@@H]2O[C@H](C)C[C@H](N(C)C)[C@H]2O)[C@](C)(O)C[C@@H](C)CN(CCCNCc2ccc3ccccc3n2)[C@H](C)[C@@H](O)[C@]1(C)O [Example 1, 9a-{3-[(Quinolin-2-yl-methyl)amino]propyl}-9-deoxo-9-dihydro-9a-aza-9a-homoerythromycin A] | 0.1 to 0.2 (≈ 0.107 to 0.214 µM) | < 0.1 | < 0.1 |  |  | 
CC[C@H]1OC(=O)[C@H](C)[C@@H](O[C@H]2C[C@@](C)(OC)[C@@H](O)[C@H](C)O2)[C@H](C)[C@@H](O[C@@H]2O[C@H](C)C[C@H](N(C)C)[C@H]2O)[C@](C)(O)C[C@@H](C)CN(CCC(=O)NCCCc2ccccc2)[C@H](C)[C@@H](O)[C@]1(C)O [Example 40] | 0.2 to 1 (≈ 0.216 to 1.08 µM) | 0.1 to 0.2 (≈ 0.108 to 0.216 µM) | 0.1 to 0.2 (≈ 0.108 to 0.216 µM) |  |  | 
CC[C@H]1OC(=O)[C@H](C)[C@@H](O[C@H]2C[C@@](C)(OC)[C@@H](O)[C@H](C)O2)[C@H](C)[C@@H](O[C@@H]2O[C@H](C)C[C@H](NC)[C@H]2O)[C@](C)(O)C[C@@H](C)CN(CCCNc2ccnc3ccccc23)[C@H](C)[C@@H](O)[C@]1(C)O [Example 25, 9a-[3-(Quinolin-4-yl-amino)propyl]-3′-N-demethyl-9-deoxo-9-dihydro-9a-aza-9a-homoerythromycin A] | 1 to 2.5 (≈ 1.1 to 2.76 µM) | 0.2 to 1 (≈ 0.221 to 1.1 µM) | 1 to 2.5 (≈ 1.1 to 2.76 µM) |  |  | 
CC[C@H]1OC(=O)[C@H](C)[C@@H](O[C@H]2C[C@@](C)(OC)[C@@H](O)[C@H](C)O2)[C@H](C)[C@@H](O[C@@H]2O[C@H](C)C[C@H](N(C)C)[C@H]2O)[C@](C)(O)C[C@@H](C)CN(CCC(=O)N[C@@H](C)c2cccc3ccccc23)[C@H](C)[C@@H](O)[C@]1(C)O [Example 42] | 0.1 to 0.2 (≈ 0.104 to 0.208 µM) | < 0.1 | < 0.1 |  |  | 
CC[C@H]1OC(=O)[C@H](C)[C@@H](O[C@H]2C[C@@](C)(OC)[C@@H](O)[C@H](C)O2)[C@H](C)[C@@H](O[C@@H]2O[C@H](C)C[C@H](N(C)C)[C@H]2O)[C@](C)(O)C[C@@H](C)CN(CCCNCc2cccnc2)[C@H](C)[C@@H](O)[C@]1(C)O [Example 12, 9a-{3-[(Pyridine-3-yl-methyl)amino]propyl}-9-deoxo-9-dihydro-9a-aza-9a-homoerythromycin A] |  |  |  | C (200 < X ≦ 1000) | C (200 < X ≦ 1000) | C (200 < X ≦ 1000)
